Results from patent US7390625B2, “Apoptosis-associated protein and use thereof” (Takeda Pharmaceutical Company Limited, priority 2002, dated 2008).
Peptide text beside a SMILES is read from it. * marks the point of attachment. Cbz = O=C(OCc1ccccc1)*; CH2F = FC*

System: PAE-ABP1 cells
Assay: Cell death assay in PAE-ABP1 cells after removal of tetracycline
Assay type: cell-based, porcine
Settings: 50 μM, 18 hours after tetracycline removal
Procedure: FIGS. 7A-B show the induction of cell death by ABP1 in PAE-ABP1 cells. FIG. 7A: Phase contrast photomicrographs at 36 hours after cultivation of PAE-ABP1 cells in the presence (+) and absence (−) of tetracycline (Tet) are shown. FIG. 7B: The ratio (%) of cell death from cultivation in the presence of tetracycline (O hour) and at 24 hours and 48 hours after removal of tetracycline.
FIGS. 9A-B show the caspase dependency of cell death by ABP1. FIG. 9A: PAE-ABP1 cells were cultivated in the absence of tetracycline, and caspase-3 activity was measured after 0, 12, 24, and 36 hours. The results are shown as relative values with the value in the presence of tetracycline taken as 1. FIG. 9B: PAE-ABP1 cells were treated with zVAD-fmk (50 μM) simultaneously with removal of tetracycline, and the ratio (%) of dead cells was quantified. Cell death assay was conducted at 18 hours after removal of tetracycline. […]
When these cells were cultured in the absence of tetracycline, cell death was induced with the expression of the ABP1 protein, as in the transient expression of the ABP1 protein in HeLa cells (FIG. 7A). The ratio of dead cells to all cells (the ratio of cells showing a morphological sign of cell death to all cells was determined under a microscope; the results were shown as the mean for three visual fields) was determined to be about 55% at 48 hours after removal of tetracycline (FIG. 7B).

For COC(=O)C[C@H](NC(=O)[C@H](C)NC(=O)[C@@H](NC(=O)OCc1ccccc1)C(C)C)C(=O)CF [zVAD-fmk, reference compound] (Cbz-Val-Ala-Asp(OMe)-CH2F), the “suppression of cell death caused by ABP1” value was “almost completely suppressed”.
